From PubChem BioAssay (NCI) come the findings set out here.

Common to all, as to assay: NCI-60 cell line screen, 48 h
The test system of assay [1] is NCI-H23 lung.
Assay [2] relates to HL-60(TB) leukemia.
In assay [3] the test system is A498 renal.
In assay [4] the test system is M14 melanoma.
The subject of assay [5] is OVCAR-4 ovarian.
Assay [6] deals with SK-OV-3 ovarian.
Assay [7] relates to 786-0 renal.
In assay [8] the test system is ACHN renal.
Assay [9] deals with MOLT-4 leukemia.
The test system of assay [10] is RXF 393 renal.

“And” between values parts separate entries of the source, which are not always exact repeats. Identical values can stand only once.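 Five concentrations, 48 hours, 96-well plates. GI50 = concentration required for 50% inhibition of growth. TGI marks complete inhibition of growth.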 Residues, ends and D or L forms follow the SMILES beside them. *: point of attachment. Cbz = O=C(OCc1ccccc1)* A value given as a limit tells only on which side of the number the result lay.

For `NCCSC(c1ccccc1)(c1ccccc1)c1ccccc1`, the GI50 in assay [1] is 3.38 µM; in [2], 0.879 µM; in [3], 1.03 µM; in [4], 0.354 µM; in assay [5] it was 2.94 µM; in [6], 0.512 µM. For the same compound, the GI50 in [7] was 1.22 µM; in [8] it was 1.48 µM; in assay [9] it was 2.3 µM. Moreover, the TGI came to 13.6 µM in assay [1]; 3.03 µM in assay [2]; 8.39 µM in [3]; 1.15 µM in assay [4]; 12.9 µM in assay [5]; 12.5 µM in assay [6]. Further, the TGI amounted to 12.1 µM in [7], 11.2 µM in assay [8] and 7.1 µM in assay [9].
With `O=[N+]([O-])C=C1c2ccccc2-c2ccccc21`, the TGI in [1] was determined as 30.4 µM; in assay [2] it was 23.7 µM; in assay [3] it was 34.6 µM; in assay [4] it was 25.3 µM; in assay [5], 28.2 µM; in assay [10], 31.3 µM. Moreover, the TGI was determined as 30.3 µM in [7], 30.6 µM in assay [8] and 53.5 µM in assay [9].
Consider `O=C1C(=O)N(c2ccc(Cl)cc2)C(=O)C(=Nc2cccc3c(=O)[nH][nH]c(=O)c23)C1c1nc2ccccc2o1` (stereo not drawn), for which the TGI in [1], in assay [2], in [3], in [4], in assay [5] and in [6] was over 100 µM throughout. Also, the TGI in assay [7], in assay [8] and in assay [9] was over 100 µM throughout.
With `COC(=O)C1[C@H](c2ccc3c(c2)OCO3)OC(=O)[C@]1(C(=O)OC)C(=O)c1ccc(OC)c(OC)c1` (stereo partly drawn), the TGI in assay [1] is over 100 µM; in assay [2], 55.2 µM; in [3] it was over 100 µM; in assay [4], over 100 µM; in assay [5], over 100 µM; in assay [6], over 100 µM. Also, the TGI in [7] was over 100 µM; in assay [8], over 100 µM; in assay [9], 87.2 µM.
In the case of `CN1CCN(CCCN2c3ccccc3Sc3ccc(Cl)cc32)CC1`, the TGI in [1] was 12 µM; in assay [2], 17.9 µM; in assay [3], 5.82 µM and 31.6 µM; in assay [5], 12.4 µM; in assay [6], 13.8 µM; in [7], 12.8 µM and 61.4 µM. The TGI worked out at 12.4 µM in assay [8] and 11.5 µM in assay [9]. Also, the GI50 is 8.85 µM in [2]; 5.74 µM in assay [5]; 6.93 µM in assay [6]; 6.15 µM and 38 µM in assay [7]; 5.93 µM in [8]; 3.8 µM in assay [9].
In the case of `COc1ccc2nc3cccc([N+](=O)[O-])c3c(NC(C)CN(C)C)c2c1` (stereo not drawn), the GI50 in [1] is 2.1 µM; in [2], 2.67 µM; in assay [3], 2.09 µM; in assay [4], 1.41 µM; in assay [5], 2 µM; in assay [6], 2.62 µM. In addition, the GI50 in [7] was 2.22 µM; in assay [8] it was 1.58 µM; in [9], 1.23 µM. For the same compound, the TGI in assay [1] amounted to 5.33 µM; in assay [3], 4.59 µM; in assay [4], 2.8 µM; in assay [5] it was 4.65 µM; in [6], 9.14 µM; in assay [7], 7.12 µM. In addition, the TGI was 7.23 µM in assay [8] and 4.13 µM in [9].
On to `COc1ccc(-c2[nH]nc(N)c2-c2cc(OC)c(OC)c(OC)c2)cc1`, for which the GI50 in assay [1] was 0.0422 µM; in assay [2], 0.0236 µM; in [3] it was 0.021 µM; in [4], 0.0281 µM; in assay [5], 1.62 µM; in assay [6], 0.0417 µM. The GI50 was 0.0663 µM in assay [7], 0.0806 µM in assay [8] and 0.0487 µM in assay [9]. Moreover, the TGI is over 32.1 µM in [1]; 0.0622 µM in assay [2]; 0.0832 µM in assay [3]; 3.46 µM in assay [4]; over 100 µM in assay [5]; 2.2 µM in assay [6]. Moreover, the results for the TGI in [7] and in [8] were over 58.3 µM and over 100 µM, respectively.
Take `COc1ccc(Cn2cc3c(c2-c2cc(OC)c(OC)c(OC)c2)CCc2c(CO)noc2-3)cc1`: the GI50 in assay [1] is 0.612 µM; in assay [2] it was 0.231 µM; in assay [3], 0.187 µM; in [4] it was 0.215 µM; in assay [5], 4.2 µM; in assay [6], 0.428 µM. Besides, the GI50 was 0.493 µM in [7], 0.659 µM in [8] and 0.458 µM in [9]. The TGI in [1] came out at 42.1 µM; in assay [2], 0.656 µM; in assay [3], 3.03 µM; in [4] it was 2.88 µM; in assay [5] it was 51.6 µM; in assay [6], 31.1 µM. The figures for the TGI in assay [7], in [8] and in [9] were 24.7 µM, 45 µM and 27.8 µM, respectively.
Consider `CCOC(=O)CN(c1ccccc1)c1nc(=[N+](C)C)ss1`, for which the TGI is 48.4 µM in [2]; over 100 µM in [3]; 96.8 µM in assay [4]; 32.7 µM in assay [5]; over 100 µM in [6]; over 100 µM in [10]. Besides, the figures for the TGI in [7], in assay [8] and in [9] were over 100 µM, over 100 µM and 28.2 µM, respectively.
For `CC(C)C[C@@H](C=O)NC(=O)[C@H](CC(C)C)NC(=O)[C@H](CC(C)C)NC(=O)OCc1ccccc1` (Cbz-Leu-Leu-Leu-aldehyde), the GI50 in assay [1] is 0.422 µM; in assay [2], 0.33 µM; in assay [3], 0.424 µM; in assay [4], 0.338 µM; in assay [6], 0.614 µM; in assay [10], 0.199 µM. In addition, the GI50 is 0.349 µM in [7], 0.357 µM in assay [8] and 0.322 µM in assay [9]. Moreover, the TGI is 2.99 µM in [1]; 1.89 µM in assay [2]; 2.22 µM in assay [3]; 1.74 µM in [4]; 5.34 µM in assay [6]; 0.371 µM in [10]. For the same compound, the TGI in [7] turned out to be 1.4 µM; in assay [8], 1.98 µM; in assay [9] it was 11.9 µM.
